Experimental findings from patent US20260070945A1, “MACROCYCLIC IMMUNOMODULATORS” (Bristol-Myers Squibb Company, priority 2022, published 2026) are described below.

A word on the IC50: it is the concentration needed to halve the response being measured.

Each structure is given as a SMILES string. *1 amine or outer side, *2 acyl side, *3 side chain or, on linkers, in order; H or OH if unused. Where a SMILES comes first, the peptide text is derived from it. Bridges are numbered along the chain shown (N, C = ends). [ ]: non-standard residue; d: D form. The star is where a group is joined. ξ: configuration not given here. Phe(4-guanidino) = N=C(N)Nc1ccc(C[C@H](N)C(=O)O)cc1; Phe(3-CF3) = N[C@@H](Cc1cccc(C(F)(F)F)c1)C(=O)O; Phe(4-CF3) = N[C@@H](Cc1ccc(C(F)(F)F)cc1)C(=O)O; Phe(4-CONH2) = NC(=O)c1ccc(C[C@H](N)C(=O)O)cc1; Phe(4-COOH) = N[C@@H](Cc1ccc(C(=O)O)cc1)C(=O)O; Bip = N[C@@H](Cc1ccc(-c2ccccc2)cc1)C(=O)O; NH(CH2)14COOH = O=C(O)CCCCCCCCCCCCCCN*; Phe(3-Me) = Cc1cccc(C[C@H](N)C(=O)O)c1; NH(CH2)8CO = O=C(CCCCCCCCN[*:1])[*:2]; NH(CH2)12COOH = O=C(O)CCCCCCCCCCCCN*; Val(3-OH) = CC(C)(O)[C@H](N)C(=O)O; hArg = N=C(N)NCCCC[C@H](N)C(=O)O; 4Pal = N[C@@H](Cc1ccncc1)C(=O)O; Cha = N[C@@H](CC1CCCCC1)C(=O)O; Cit = NC(=O)NCCC[C@H](N)C(=O)O; Ile(3ξ) = CCC(C)[C@H](N)C(=O)O; Thr(3ξ) = CC(O)[C@H](N)C(=O)O; 12Ado = NCCCCCCCCCCCC(=O)O; hSer = N[C@@H](CCO)C(=O)O; Carboxymethyl = O=C(O)C*; NMeA = CN[C@@H](C)C(=O)O; Orn = NCCC[C@H](N)C(=O)O; Aun = NCCCCCCCCCCC(=O)O; Dab = NCC[C@H](N)C(=O)O; Abu = CC[C@H](N)C(=O)O; AEEA = NCCOCCOCC(=O)O

T1 sequence (Q15116 25-288): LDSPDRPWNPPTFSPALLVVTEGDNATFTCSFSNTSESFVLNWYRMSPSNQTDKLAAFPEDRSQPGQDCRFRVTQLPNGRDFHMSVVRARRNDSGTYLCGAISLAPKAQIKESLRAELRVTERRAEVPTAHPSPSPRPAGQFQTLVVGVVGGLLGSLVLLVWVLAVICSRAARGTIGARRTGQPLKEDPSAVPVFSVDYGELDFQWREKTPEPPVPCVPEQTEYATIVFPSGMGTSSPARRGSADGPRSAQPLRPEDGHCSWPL

The first test has as its target T1, PD-1/PD-L1 interaction (PE-labeled human PD-L1-Ig binding to Jurkat cell line over-expressing human PD-1) (Homo sapiens, UniProt Q15116).
T1 construct: expressed in transfected cells; host or cells: Jurkat
Description: Jurkat-PD-1 Cell Binding High-Content Screening Assay (CBA). The conditions noted are these: Jurkat-hPD-1 cells, PE-labeled PD-L1-Ig 20 nM final; read-out: Jurkat HPD1 PDL1 IC50. Put shortly:
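High-content imaging read-out of PE-PD-L1-Ig binding (20 nM final, 1 h) to Jurkat-hPD-1 cells, after 2 h compound exposure at 37 °C in DMEM with 10% FCS. Nuclei counterstained with Hoechst 33342 after paraformaldehyde fixation.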
For `CCC(C)[C@@H]1NC(=O)[C@H](Cc2ccc(-c3ccccc3)cc2)NC(=O)[C@H](CC(C)C)NC(=O)[C@H](Cc2c[nH]c3ccccc23)NC(=O)[C@H](CC(=O)O)NC(=O)[C@H](Cc2ccc(OCC(=O)O)cc2)NC(=O)[C@H](CCCCNC(=N)N)NC(=O)CSC[C@@H](C(=O)NCCOCCOCC(=O)N[C@@H](CCN)C(=O)NCCCCCCCCCCC(=O)O)NC(=O)[C@H](CCCCN)NC(=O)[C@H](C(C)C)NC(=O)[C@H](CC2CCCCC2)NC(=O)[C@H](CCN)NC(=O)[C@@H](CC(C)C)NC(=O)[C@H](C)N(C)C1=O` (stereo partly drawn) [Example 2184] ({CH2CO}-[hArg]Y(Carboxymethyl)DWL[Bip][Ile(3ξ)][NMeA][dL][Dab][Cha]VKC[AEEA][Dab][Aun]-OH; thioether N-14), the IC50 was found to be 30.2 nM.
On the same count and under the same terms, next, `Cc1cccc(C[C@@H]2NC(=O)[C@H](CC(=O)O)NC(=O)[C@H](Cc3ccc(OCC(=O)O)cc3)NC(=O)[C@H](C(C)O)NC(=O)CSC[C@@H](C(=O)N[C@@H](CCN)C(=O)NCCCCCCCCCCC(=O)O)NC(=O)[C@H](CCO)NC(=O)[C@H](C(C)C)NC(=O)[C@H](CC3CCCCC3)NC(=O)[C@H](CCN)NC(=O)[C@@H](CC(C)C)NC(=O)[C@H](C)N(C)C(=O)[C@H](Cc3ccc(OCC(=O)O)cc3)NC(=O)[C@H](Cc3ccc(-c4ccccc4)cc3)NC(=O)[C@H](Cc3ccc(C(=O)O)cc3)NC2=O)c1` (stereo partly drawn) [Example 2352] ({CH2CO}-[Thr(3ξ)]Y(Carboxymethyl)D[Phe(3-Me)][Phe(4-COOH)][Bip]Y(Carboxymethyl)[NMeA][dL][Dab][Cha]V[hSer]C[Dab][Aun]-OH; thioether N-14): 14.5 nM.
As to `CCC(C)[C@@H]1NC(=O)[C@H](CC(C)C)NC(=O)[C@H](CCN)NC(=O)[C@@H](CC(C)C)NC(=O)[C@H](C)N(C)C(=O)[C@H](C(C)CC)NC(=O)[C@H](Cc2ccc(-c3ccccc3)cc2)NC(=O)[C@H](C(C)CC)NC(=O)[C@H](Cc2c[nH]c3ccccc23)NC(=O)[C@H](CC(=O)O)NC(=O)[C@H](Cc2ccc(OCC(=O)O)cc2)NC(=O)[C@H](C(C)O)NC(=O)CSC[C@@H](C(=O)N[C@H](CC(N)=O)C(=O)NCCOCCOCC(=O)NCCCCCCCCCCC(=O)O)NC(=O)[C@H](CO)NC1=O` (stereo partly drawn) [Example 2080] ({CH2CO}-[Thr(3ξ)]Y(Carboxymethyl)DW[Ile(3ξ)][Bip][Ile(3ξ)][NMeA][dL][Dab]L[Ile(3ξ)]SC[dN][AEEA][Aun]-OH; thioether N-14), the IC50 amounted to 110 nM.
In the case of `CC(C)C[C@@H]1NC(=O)[C@H](Cc2c[nH]c3ccccc23)NC(=O)[C@H](CC(=O)O)NC(=O)[C@H](Cc2ccncc2)NC(=O)[C@H](Cc2ccc(OCC(=O)O)cc2)NC(=O)CSC[C@@H](C(=O)N[C@@H](CCCNC(N)=O)C(=O)NCCOCCOCC(=O)NCCCCCCCCCCC(=O)O)NC(=O)[C@H](CCCNC(N)=O)NC(=O)[C@H](C(C)C)NC(=O)[C@H](CC2CCCCC2)NC(=O)[C@H](CCN)NC(=O)[C@@H](CC(C)C)NC(=O)[C@H](C)N(C)C(=O)[C@H](C(C)C)NC(=O)[C@H](Cc2ccc(-c3ccccc3)cc2)NC1=O` [Example 2167] ({CH2CO}-Y(Carboxymethyl)[4Pal]DWL[Bip]V[NMeA][dL][Dab][Cha]V[Cit]C[Cit][AEEA][Aun]-OH; thioether N-14), the IC50 is 24.4 nM.
Still for that read-out and setting: next, `Cc1cccc(C[C@@H]2NC(=O)[C@H](CC(=O)O)NC(=O)[C@H](Cc3ccc(OCC(=O)O)cc3)NC(=O)[C@H](CCCCNC(=N)N)NC(=O)CSC[C@@H](C(=O)N[C@@H](CO)C(=O)NCCOCCOCC(=O)N[C@@H](CCCN)C(=O)NCCCCCCCCCCCC(=O)O)NC(=O)[C@H](CO)NC(=O)[C@H](C(C)C)NC(=O)[C@H](CC3CCCCC3)NC(=O)[C@H](CCN)NC(=O)[C@@H](CC(C)C)NC(=O)[C@H](C)N(C)C(=O)[C@H](C(C)C)NC(=O)[C@H](Cc3ccc(-c4ccccc4)cc3)NC(=O)[C@H](CC(C)C)NC2=O)c1` [Example 2122] ({CH2CO}-[hArg]Y(Carboxymethyl)D[Phe(3-Me)]L[Bip]V[NMeA][dL][Dab][Cha]VSCS[AEEA][Orn][12Ado]-OH; thioether N-14): 16 nM; `Cc1cccc(C[C@@H]2NC(=O)[C@H](CC(=O)O)NC(=O)[C@H](Cc3ccc(C(=O)O)cc3)NC(=O)[C@H](Cc3ccncc3)NC(=O)CSC[C@@H](C(=O)N[C@@H](CCN)C(=O)NCCOCCOCC(=O)NCCCCCCCCCCC(=O)O)NC(=O)[C@H](CCCN)NC(=O)[C@H](C(C)C)NC(=O)[C@H](CC3CCCCC3)NC(=O)[C@H](CCN)NC(=O)[C@@H](CC(C)C)NC(=O)[C@H](C)N(C)C(=O)[C@H](CCCNC(N)=O)NC(=O)[C@H](Cc3ccc(-c4ccccc4)cc3)NC(=O)[C@H](Cc3ccc(OCC(=O)O)cc3)NC2=O)c1` [Example 1406] ({CH2CO}-[4Pal][Phe(4-COOH)]D[Phe(3-Me)]Y(Carboxymethyl)[Bip][Cit][NMeA][dL][Dab][Cha]V[Orn]C[Dab][AEEA][Aun]-OH; thioether N-14): 51.1 nM.

Staying with this test, now noted: PE-labeled PD-L1-Ig 20 nM final, Jurkat-hPD-1 cells; read-out: Jurkat HPD1 PDL1 IC50.
For the compound `Cc1cccc(C[C@@H]2NC(=O)[C@H](CC(=O)O)NC(=O)[C@H](Cc3ccc(OCC(=O)O)cc3)NC(=O)[C@H]([C@@H](C)O)NC(=O)CSC[C@@H](C(=O)N[C@@H](CCN)C(=O)NCCCCCCCCCCCC(=O)NCCCCCCCCCCCC(=O)O)NC(=O)[C@H](CCC(=O)O)NC(=O)[C@H](C(C)C)NC(=O)[C@H](CC3CCCCC3)NC(=O)[C@H](CCN)NC(=O)[C@@H](CC(C)C)NC(=O)[C@H](C)N(C)C(=O)[C@H](Cc3ccc(OCC(=O)O)cc3)NC(=O)[C@H](Cc3ccc(-c4ccccc4)cc3)NC(=O)[C@H](Cc3ccc(OCC(=O)O)cc3)NC2=O)c1` [Example 2682] ({CH2CO}-TY(Carboxymethyl)D[Phe(3-Me)]Y(Carboxymethyl)[Bip]Y(Carboxymethyl)[NMeA][dL][Dab][Cha]VEC[Dab][12Ado][12Ado]-OH; thioether N-14), the IC50 came out at 58 nM.
On the same count and under the same terms, the figure for `CC[C@@H]1NC(=O)CSC[C@@H](C(=O)N[C@@H](CCN)C(=O)NCCCCCCCCCCCCC(=O)O)NC(=O)[C@H](CO)NC(=O)[C@H](C(C)(C)O)NC(=O)[C@H](CC2CCCCC2)NC(=O)[C@H](CCN)NC(=O)[C@@H](CC(C)C)NC(=O)[C@H](C)N(C)C(=O)[C@H](Cc2ccc(C(=O)O)cc2)NC(=O)[C@H](Cc2ccc(-c3ccccc3)cc2)NC(=O)[C@H](Cc2ccc(C(=O)O)cc2)NC(=O)[C@H](Cc2cccc(C(F)(F)F)c2)NC(=O)[C@H](CC(=O)O)NC(=O)[C@H](Cc2ccc(C(=O)O)cc2)NC1=O` [Example 2569] ({CH2CO}-[Abu][Phe(4-COOH)]D[Phe(3-CF3)][Phe(4-COOH)][Bip][Phe(4-COOH)][NMeA][dL][Dab][Cha][Val(3-OH)]SC[Dab]-{NH(CH2)12COOH}; thioether N-14) is 45.3 nM; for `CC(C)C[C@H]1NC(=O)[C@H](C)N(C)C(=O)[C@H](Cc2ccc(C(=O)O)cc2)NC(=O)[C@H](Cc2ccc(-c3ccccc3)cc2)NC(=O)[C@H](Cc2ccc(C(=O)O)cc2)NC(=O)[C@H](Cc2cccc(C(F)(F)F)c2)NC(=O)[C@H](CC(=O)O)NC(=O)[C@H](Cc2ccc(C(=O)O)cc2)NC(=O)[C@H](C(C)O)NC(=O)CSC[C@@H](C(=O)N[C@@H](CCN)C(=O)NCCOCCOCC(=O)NCCCCCCCCCCCCCCC(=O)O)NC(=O)[C@H](CC(=O)O)NC(=O)[C@H](C(C)C)NC(=O)[C@H](CC2CCCCC2)NC(=O)[C@H](CCN)NC1=O` (stereo partly drawn) [Example 2605] ({CH2CO}-[Thr(3ξ)][Phe(4-COOH)]D[Phe(3-CF3)][Phe(4-COOH)][Bip][Phe(4-COOH)][NMeA][dL][Dab][Cha]VDC[Dab][AEEA]-{NH(CH2)14COOH}; thioether N-14) it is 615 nM.
Still for that read-out and setting: the figure for `CC(C)C[C@H]1NC(=O)[C@H](C)N(C)C(=O)[C@H](Cc2ccc(C(N)=O)cc2)NC(=O)[C@H](Cc2ccc(-c3ccccc3)cc2)NC(=O)[C@H](Cc2ccc(C(N)=O)cc2)NC(=O)[C@H](Cc2c[nH]c3ccccc23)NC(=O)[C@H](CC(=O)O)NC(=O)[C@H](Cc2ccc(OCC(=O)O)cc2)NC(=O)[C@H](C(C)O)NC(=O)CSC[C@@H](C(=O)N[C@@H](CCN)C(=O)NCCCCCCCCCCC(=O)O)NC(=O)[C@H](CO)NC(=O)[C@H](Cc2cnc[nH]2)NC(=O)[C@H](CC2CCCCC2)NC(=O)[C@H](CCN)NC1=O` (stereo partly drawn) [Example 2429] ({CH2CO}-[Thr(3ξ)]Y(Carboxymethyl)DW[Phe(4-CONH2)][Bip][Phe(4-CONH2)][NMeA][dL][Dab][Cha]HSC[Dab][Aun]-OH; thioether N-14) is 217 nM; for `Cc1cccc(C[C@@H]2NC(=O)[C@H](CC(=O)O)NC(=O)[C@H](Cc3ccc(C(=O)O)cc3)NC(=O)[C@H](C)NC(=O)CSC[C@@H](C(=O)N[C@@H](CCN)C(=O)NCCCCCCCCCCC(=O)O)NC(=O)[C@H](C(C)O)NC(=O)[C@H](C(C)C)NC(=O)[C@H](CC3CCCCC3)NC(=O)[C@H](CCN)NC(=O)[C@@H](CC(C)C)NC(=O)[C@H](C)N(C)C(=O)[C@H](Cc3ccc(C(=O)O)cc3)NC(=O)[C@H](Cc3ccc(-c4ccccc4)cc3)NC(=O)[C@H](Cc3ccc(C(F)(F)F)cc3)NC2=O)c1` (stereo partly drawn) [Example 2582] ({CH2CO}-A[Phe(4-COOH)]D[Phe(3-Me)][Phe(4-CF3)][Bip][Phe(4-COOH)][NMeA][dL][Dab][Cha]V[Thr(3ξ)]C[Dab][Aun]-OH; thioether N-14) it is 21.3 nM; for `Cc1cccc(C[C@@H]2NC(=O)[C@H](CC(=O)O)NC(=O)[C@H](Cc3ccc(NC(=N)N)cc3)NC(=O)[C@H]([C@@H](C)O)NC(=O)CSC[C@@H](C(=O)N[C@@H](CCN)C(=O)NCCCCCCCCC(=O)NCCCCCCCCCCC(=O)O)NC(=O)[C@H](CCCN)NC(=O)[C@H](C(C)C)NC(=O)[C@H](CC3CCCCC3)NC(=O)[C@H](CCN)NC(=O)[C@@H](CC(C)C)NC(=O)[C@H](C)N(C)C(=O)[C@H](Cc3ccc(NC(=N)N)cc3)NC(=O)[C@H](Cc3ccc(-c4ccccc4)cc3)NC(=O)[C@H](Cc3ccc(NC(=N)N)cc3)NC2=O)c1` [Example 2684] ({CH2CO}-T[Phe(4-guanidino)]D[Phe(3-Me)][Phe(4-guanidino)][Bip][Phe(4-guanidino)][NMeA][dL][Dab][Cha]V[Orn]C[Dab][NH(CH2)8CO][Aun]-OH; thioether N-14) it is 4.4 nM.
